Test results: article PMC7922564, “Molecular Insights into an Antibiotic Enhancer Action of New Morpholine-Containing 5-Arylideneimidazolones in the Fight against MDR Bacteria” (International Journal of Molecular Sciences, 2021)
Where two headings read alike, the source gives them in different places.

Key:
S. aureus MM-O058 [1] = experiment: MIC reduction assay (antibiotic adjuvant), S. aureus MM-O058; type: cell-based, Staphylococcus aureus
From the text: (§1) The adjuvant properties of compounds 14–16 in S. aureus clinical isolates were next tested in combination with oxacillin and the penicillinase-susceptible β-lactam antibiotic, ampicillin. The second β-lactam antibiotic was chosen based on its vulnerability to enzymatic hydrolysis, another important resistance mechanism in S. aureus against penicillin. Therefore, the results of the MIC reduction assay obtained on the activity of arylideneimidazolones combined with oxacillin and ampicillin, respectively, might provide further insights into the possible mechanism of action of the compounds. Complete results are presented in Supplementary (Tables S4 and S5), while condensed in Figure 6, in the case of desired activity noted. […] One possible explanation for the lack of adjuvant activity of compounds in some of the strains selected for this study might be that these strains express PBP2a only when induced by the antibiotic, while others, for which potentiating activity of compounds was observed, produce this protein in high levels straight away.
(§2) Determination of MIC values, i.e., intrinsic antibacterial activity, of products and antibiotics (oxacillin, ampicillin, vancomycin, ciprofloxacin, and erythromycin) in the presence and absence of compounds tested was conducted by the use of a standard 2-fold microdilution method in cation-adjusted Mueller Hinton broth following the Clinical and Laboratory Standards Institute (CLSI) guidelines. The MIC values were detected using an Infinite M200 pro Tecan microplate reader (Tecan® France, SA-Lyon, France). MIC determinations were conducted in 96-well microtiter plates and repeated 3–4 times.
(§3) Initially, MICs of a series of imidazolone derivatives were assessed against susceptible (reference) and MDR strains of staphylococci. Next, MIC values of the aforementioned antibiotics were determined in the absence and presence of imidazolone derivatives to assess the chemosensitizing effect of these compounds. […] 5-arylideneimidazolones and 5-arylidenethiazolones, which precipitated after addition to bacterial suspension in MH II medium, were tested at the highest concentrations at which precipitation was not observed. […] Antibacterial activity of compounds and antibiotics ampicillin, vancomycin, ciprofloxacin, and erythromycin was recorded as the lowest concentration of molecules able to inhibit bacterial growth after 18 h incubation at 37 °C. The incubation of bacterial strains exposed to oxacillin paired with compounds tested was conducted at 35 °C and extended to 24 h due to frequent occurrence of heterogeneity among MRSA strains. The results are presented as activity gain (A) parameter which was calculated as ratio of MIC of a certain antibiotic (MICAnt) to its MICAnt+Comp, observed in combination with a tested compound (7, 12–16, 19, or 20; Equation (1)). (1) A=(MICAnt/MICAnt+Comp)

S. aureus Mu50 = experiment: MIC of compounds, S. aureus Mu50; type: cell-based; details: Staphylococcus aureus; Mu50 (VISA)
Protocol: Compounds 14–16 were tested further for their adjuvant-like effect with a set of ten additional S. aureus isolates. Firstly, MIC values of the molecules were evaluated in two clinical MSSA isolates (MM-O058, MM-N072), seven MRSA (USA300 LAC, 5328, LG-N017, MM-O021, R45-CC45, R46-CC22, COL) and one VISA strain (Mu50). Detailed results are presented in the Supplementary section (Table S3). […]
(§4) Initially, MICs of a series of imidazolone derivatives were assessed against susceptible (reference) and MDR strains of staphylococci. Next, MIC values of the aforementioned antibiotics were determined in the absence and presence of imidazolone derivatives to assess the chemosensitizing effect of these compounds. […] Antibacterial activity of compounds and antibiotics ampicillin, vancomycin, ciprofloxacin, and erythromycin was recorded as the lowest concentration of molecules able to inhibit bacterial growth after 18 h incubation at 37 °C. […] The results are presented as activity gain (A) parameter which was calculated as ratio of MIC of a certain antibiotic (MICAnt) to its MICAnt+Comp, observed in combination with a tested compound (7, 12–16, 19, or 20; Equation (1)). […]

S. aureus MM-O058 [2] = experiment: MIC of compounds, S. aureus MM-O058; type: cell-based; details: Staphylococcus aureus; MM-O058 (MSSA)
Protocol: (§5) Compounds 14–16 were tested further for their adjuvant-like effect with a set of ten additional S. aureus isolates. Firstly, MIC values of the molecules were evaluated in two clinical MSSA isolates (MM-O058, MM-N072), seven MRSA (USA300 LAC, 5328, LG-N017, MM-O021, R45-CC45, R46-CC22, COL) and one VISA strain (Mu50). Detailed results are presented in the Supplementary section (Table S3).
as §2
as §4, with “compounds. […] 5-arylideneimidazolones and 5-arylidenethiazolones, which precipitated after addition to bacterial suspension in MH II medium, were tested at the highest concentrations at which precipitation was not observed.” for “compounds.”

[3] = system: K. aerogenes Ea-294, Ea-308; experiment: MIC reduction assay (antibiotic adjuvant), K. aerogenes Ea-294, Ea-308; type: cell-based, Klebsiella aerogenes; details: doxycycline, chloramphenicol, norfloxacin, erythromycin;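 note: compound at no more than one quarter of its own MIC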
From the text: (§6) A subset of compounds, namely 7, 12–16, 19, 20, was also examined for the potential to increase the effectiveness of the antibiotics chloramphenicol, erythromycin, doxycycline, and the fluoroquinolone antibiotic norfloxacin, which all are substrates for AcrAB-TolC in K. aerogenes. In addition to strain Ea-289, the adjuvant-like effect of the compounds was investigated in strain CM-64, which also overexpresses the AcrAB-TolC efflux pump, although it has no changes in porin content, and in the Ea-289 derivatives, i.e., Ea-294 and Ea-308, which are devoid of AcrAB (Table S17, Supplementary).
as §3
(§7) MIC values of 5-arylideneimidazolone derivatives were determined following CLSI recommendations as in the methods described for S. aureus (Section 3.3.1).

S. aureus LG-N017 = experiment: MIC of compounds, S. aureus LG-N017; type: cell-based; details: Staphylococcus aureus; LG-N017 (MRSA)
Protocol: as §5, §2
as §4, with “compounds. […] 5-arylideneimidazolones and 5-arylidenethiazolones, which precipitated after addition to bacterial suspension in MH II medium, were tested at the highest concentrations at which precipitation was not observed.” for “compounds.”

[4] = system: K. aerogenes Ea-294, Ea-308 (devoid of AcrAB); experiment: MIC of compounds, K. aerogenes Ea-294, Ea-308; type: cell-based; details: Klebsiella aerogenes, read-out: Minimal Inhibitory Concentration (MIC)
From the text: as §6, §2, §7

S. aureus R45-CC45 = experiment: MIC reduction assay (antibiotic adjuvant), S. aureus R45-CC45; type: cell-based, Staphylococcus aureus; details: ampicillin; for A (activity gain): range over repetitions
From the text: as §1, §2
as §4, with “compounds. […] 5-arylideneimidazolones and 5-arylidenethiazolones, which precipitated after addition to bacterial suspension in MH II medium, were tested at the highest concentrations at which precipitation was not observed.” for “compounds.”

S. aureus ATCC 25923 = experiment: MIC determination (microdilution), S. aureus ATCC 25923; type: cell-based, Staphylococcus aureus; details: Staphylococcus aureus
Protocol: as §2, §3

[5] = system: K. aerogenes Ea-294, Ea-308 (devoid of AcrAB); experiment: MIC of compounds, K. aerogenes Ea-294, Ea-308; type: cell-based, Klebsiella aerogenes; details: ratio of compound MICs
CYP3A4 = CYP3A4 (Homo sapiens, UniProt P08684); experiment: Luminescent CYP3A4 P450-Glo assay
CYP3A4, sequence (P08684 whole entry): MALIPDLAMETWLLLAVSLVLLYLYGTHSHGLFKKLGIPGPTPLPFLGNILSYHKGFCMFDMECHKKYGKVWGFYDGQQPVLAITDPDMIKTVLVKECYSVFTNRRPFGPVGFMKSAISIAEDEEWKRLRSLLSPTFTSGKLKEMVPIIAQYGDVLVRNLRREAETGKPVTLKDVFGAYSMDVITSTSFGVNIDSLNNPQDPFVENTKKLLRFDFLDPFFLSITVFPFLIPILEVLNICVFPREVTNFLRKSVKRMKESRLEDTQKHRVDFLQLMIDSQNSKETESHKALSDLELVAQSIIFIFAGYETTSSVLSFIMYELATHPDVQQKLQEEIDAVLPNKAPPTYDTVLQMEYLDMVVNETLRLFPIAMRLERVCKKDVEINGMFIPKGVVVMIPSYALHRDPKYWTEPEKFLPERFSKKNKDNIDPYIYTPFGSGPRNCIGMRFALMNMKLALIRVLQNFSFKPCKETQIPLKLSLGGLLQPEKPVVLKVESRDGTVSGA
Protocol: The luminescent CYP3A4 P450-Glo™ assay was carried out according to a protocol described previously (Promega, Madison, WI, USA). […] Performance of enzymatic reaction was carried out in white polystyrene, flat-bottom Nunc™ MicroWell™ 96-Well Microplate (Thermo Scientific Waltham, MA, USA) and the result was measured with a microplate reader EnSpire in luminescence mode (PerkinElmer, Waltham, MA USA). IC50 values were calculated using GraphPad Prism™ software (version 5.01, San Diego, CA, USA). Compounds 15 and 19 were tested at concentrations from 0.01 μM to 25 μM.

[6] = ATCC25923, unstarred values of column MIC value/no precipitation, read-out: MIC value

NC1=N/C(=C\c2ccc(-c3ccccc3)cc2)C(=O)N1CCN1CCOCC1 [Compound 14]
A (activity gain) (S. aureus MM-O058 [1]; ampicillin): 1 | A (activity gain) (S. aureus MM-O058 [1]; erythromycin): 1 | MIC (S. aureus Mu50): ≥ 500 µM | MIC (S. aureus MM-O058 [2]): ≥ 1000 µM | A (activity gain) [3]: 1 | MIC (S. aureus LG-N017): ≥ 500 µM | MIC [4]: 2000 µM | A (activity gain) (S. aureus R45-CC45): 2-4 | MIC (S. aureus ATCC 25923; [6]): 31.2 to 250 µM

NC1=N/C(=C\c2ccc(-c3ccccc3)cc2)C(=O)N1CCCN1CCOCC1 [Compound 15]
more effective in strains Ea-294 and Ea-298 when compared to the parental strain Ea-289 [5]: ≥ 4 fold | A (activity gain) (S. aureus MM-O058 [1]; ampicillin): 1 | A (activity gain) (S. aureus MM-O058 [1]; erythromycin): 1 | MIC (S. aureus Mu50): 250 µM | MIC (S. aureus MM-O058 [2]): 250 µM | A (activity gain) [3]: 1 | IC50 (CYP3A4): > 25 µM | inhibition at 25 µM (CYP3A4; human): < 50% | MIC (S. aureus LG-N017): 250 µM | MIC [4]: 125 µM | A (AMP), gain of activity, arithmetic mean (S. aureus R45-CC45; arithmetic mean of 3-4 repetitions): 6 | A (activity gain) (S. aureus R45-CC45): 4-8 | MIC (S. aureus ATCC 25923; ATCC25923, read-out: MIC value): 125 µM | MIC (S. aureus ATCC 25923; [6]): 31.2 to 250 µM

NC1=N/C(=C\c2cccc(Oc3ccccc3)c2)C(=O)N1CCCN1CCOCC1 [Compound 16]
more effective in strains Ea-294 and Ea-298 when compared to the parental strain Ea-289 [5]: ≥ 4 fold | A (activity gain) (S. aureus MM-O058 [1]; ampicillin): 1 | A (activity gain) (S. aureus MM-O058 [1]; erythromycin): 1 | MIC (S. aureus MM-O058 [2]): 250 µM | MIC (S. aureus LG-N017): 250 µM | MIC [4]: 500 µM | A (activity gain) (S. aureus R45-CC45): 1 | MIC (S. aureus ATCC 25923; [6]): 31.2 to 250 µM

NC1=N/C(=C\c2ccc3c(c2)Cc2ccccc2-3)C(=O)N1CCCN1CCOCC1 [Compound 19]
more effective in strains Ea-294 and Ea-298 when compared to the parental strain Ea-289 [5]: ≥ 4 fold | A (activity gain) [3]: 1 | IC50 (CYP3A4): 24.9 µM | MIC [4]: 250 µM | MIC (S. aureus ATCC 25923; [6]): 31.2 to 250 µM
